Where a name gives a salt, the structure may show the parent alone. One block for each compound: values may come before it.
Legend:
Assay in all cases: MIC, NCCLS broth microdilution
Type in all cases: cell-based
Acinetobacter sp. J2 = conditions: for MIC of antibiotic at fixed inhibitor concentration (4 mg/L): Acinetobacter sp. J2, MIC of antibiotic compound 1 with the labelled bridged monobactam of formula II and clavulanate, 4 mg/L each
[1] = test system: Pseudomonas aeruginosa MK1184; conditions: for MIC of antibiotic at fixed inhibitor concentration (4 mg/L): MIC of antibiotic compound 1 with the labelled bridged monobactam of formula II and clavulanate, 4 mg/L each
[2] = test system: Pseudomonas aeruginosa 1973E; conditions: for MIC of antibiotic at fixed inhibitor concentration (4 mg/L): MIC of antibiotic compound 1 with the labelled bridged monobactam of formula II and clavulanate, 4 mg/L each
Method: Antimicrobial activity of the compounds and of their combinations was determined against a selection of organisms according to the standard procedures described by the National Committee for Clinical Laboratory Standards (National Committee for Clinical Laboratory. Standards (2000). Methods for Dilution Antimicrobial Susceptibility Tests for Bacteria That Grow Aerobically-Fifth Edition: Approved Standard M7-A5. NCCLS, Wayne, Pa., USA).
In all cases the final concentration of DMSO incubated with the bacteria is less than or equal to 1%. […] Plates were incubated overnight at an appropriate temperature (30° C. or 37° C.) and optical densities assessed by eye. The MIC value is defined as the lowest compound concentration completely inhibiting visible growth of the test organism. When combinations between compounds of formula I with compounds of formula II and are evaluated the compounds of formula I are tested in dilution series as described above while the compounds of formula II and III-XIII were present in all wells at a constant concentration of 4 μg/mL each.

Enterobacter cloacae P99 = conditions: for MIC of antibiotic at fixed inhibitor concentration (4 mg/L): MIC of antibiotic compound 1 with the labelled bridged monobactam of formula II and clavulanate, 4 mg/L each
[3] = test system: Klebsiella pneumoniae CF104; conditions: for MIC of antibiotic at fixed inhibitor concentration (4 mg/L): MIC of antibiotic compound 1 with the labelled bridged monobactam of formula II and clavulanate, 4 mg/L each
Serratia marcescens S6 = conditions: for MIC of antibiotic at fixed inhibitor concentration (4 mg/L): MIC of antibiotic compound 1 with the labelled bridged monobactam of formula II and clavulanate, 4 mg/L each
[4] = test system: Stenotrophomonas malthophilia 1AC736; conditions: for MIC of antibiotic at fixed inhibitor concentration (4 mg/L): Stenotrophomonas malthophilia 1AC736, MIC of antibiotic compound 1 with the labelled bridged monobactam of formula II and clavulanate, 4 mg/L each

MIC of antibiotic (Acinetobacter sp. J2; Acinetobacter baumannii J2, antibiotic alone, no inhibitor): >32 mg/L
MIC of antibiotic at fixed inhibitor concentration of 4 mg/L (Acinetobacter sp. J2; Acinetobacter baumannii J2, with 102 and clavulanate): >32 mg/L
MIC of antibiotic at fixed inhibitor concentration of 4 mg/L (Acinetobacter sp. J2; Acinetobacter baumannii J2, with 102 and sulbactam): 2 mg/L
MIC of antibiotic at fixed inhibitor concentration of 4 mg/L (Acinetobacter sp. J2; Acinetobacter baumannii J2, with 323 and clavulanate): 8 mg/L
MIC of antibiotic at fixed inhibitor concentration of 4 mg/L (Acinetobacter sp. J2; Acinetobacter baumannii J2, with 323 and sulbactam): 2 mg/L
MIC of antibiotic at fixed inhibitor concentration of 4 mg/L (Acinetobacter sp. J2; Acinetobacter baumannii J2, with 324 and sulbactam): 2 mg/L
MIC of antibiotic ([1]; antibiotic alone, no inhibitor): >32 mg/L
MIC of antibiotic at fixed inhibitor concentration of 4 mg/L ([1]; with 102 and clavulanate): 16 mg/L
MIC of antibiotic at fixed inhibitor concentration of 4 mg/L ([1]; with 102 and sulbactam): 32 mg/L
MIC of antibiotic at fixed inhibitor concentration of 4 mg/L ([1]; with 323 and clavulanate): 32 mg/L
MIC of antibiotic at fixed inhibitor concentration of 4 mg/L ([1]; with 323 and sulbactam): 8 mg/L
MIC of antibiotic at fixed inhibitor concentration of 4 mg/L ([1]; with 324 and sulbactam): 32 mg/L
MIC of antibiotic ([2]; antibiotic alone, no inhibitor): 8 mg/L
MIC of antibiotic at fixed inhibitor concentration of 4 mg/L ([2]; with 102 and clavulanate): 8 mg/L
MIC of antibiotic at fixed inhibitor concentration of 4 mg/L ([2]; with 102 and sulbactam): 16 mg/L
MIC of antibiotic at fixed inhibitor concentration of 4 mg/L ([2]; with 323 and clavulanate): 16 mg/L
MIC of antibiotic at fixed inhibitor concentration of 4 mg/L ([2]; with 323 and sulbactam): 32 mg/L
MIC of antibiotic at fixed inhibitor concentration of 4 mg/L ([2]; with 324 and sulbactam): 16 mg/L
MIC of antibiotic (Enterobacter cloacae P99; antibiotic alone, no inhibitor): >32 mg/L
MIC of antibiotic at fixed inhibitor concentration of 4 mg/L (Enterobacter cloacae P99; with 102 and clavulanate): 32 mg/L
MIC of antibiotic at fixed inhibitor concentration of 4 mg/L (Enterobacter cloacae P99; with 102 and sulbactam): 32 mg/L
MIC of antibiotic at fixed inhibitor concentration of 4 mg/L (Enterobacter cloacae P99; with 323 and clavulanate): 8 mg/L
MIC of antibiotic at fixed inhibitor concentration of 4 mg/L (Enterobacter cloacae P99; with 323 and sulbactam): 8 mg/L
MIC of antibiotic at fixed inhibitor concentration of 4 mg/L (Enterobacter cloacae P99; with 324 and sulbactam): 8 mg/L
MIC of antibiotic ([3]; antibiotic alone, no inhibitor): >32 mg/L
MIC of antibiotic at fixed inhibitor concentration of 4 mg/L ([3]; with 102 and clavulanate): <0.06 mg/L
MIC of antibiotic at fixed inhibitor concentration of 4 mg/L ([3]; with 102 and sulbactam): 2 mg/L
MIC of antibiotic at fixed inhibitor concentration of 4 mg/L ([3]; with 323 and clavulanate): 2 mg/L
MIC of antibiotic at fixed inhibitor concentration of 4 mg/L ([3]; with 323 and sulbactam): 1 mg/L
MIC of antibiotic at fixed inhibitor concentration of 4 mg/L ([3]; with 324 and sulbactam): 4 mg/L
MIC of antibiotic (Serratia marcescens S6; antibiotic alone, no inhibitor): 8 mg/L
MIC of antibiotic at fixed inhibitor concentration of 4 mg/L (Serratia marcescens S6; with 102 and clavulanate): 0.5 mg/L
MIC of antibiotic at fixed inhibitor concentration of 4 mg/L (Serratia marcescens S6; with 102 and sulbactam): 16 mg/L
MIC of antibiotic at fixed inhibitor concentration of 4 mg/L (Serratia marcescens S6; with 323 and clavulanate): 2 mg/L
MIC of antibiotic at fixed inhibitor concentration of 4 mg/L (Serratia marcescens S6; with 323 and sulbactam): 2 mg/L
MIC of antibiotic at fixed inhibitor concentration of 4 mg/L (Serratia marcescens S6; with 324 and sulbactam): 4 mg/L
MIC of antibiotic ([4]; Stenotrophomonas maltophilia 1AC736, antibiotic alone, no inhibitor): 8 mg/L
MIC of antibiotic at fixed inhibitor concentration of 4 mg/L ([4]; Stenotrophomonas maltophilia 1AC736, with 102 and clavulanate): 2 mg/L
MIC of antibiotic at fixed inhibitor concentration of 4 mg/L ([4]; Stenotrophomonas maltophilia 1AC736, with 102 and sulbactam): 8 mg/L
MIC of antibiotic at fixed inhibitor concentration of 4 mg/L ([4]; Stenotrophomonas maltophilia 1AC736, with 323 and clavulanate): 2 mg/L
MIC of antibiotic at fixed inhibitor concentration of 4 mg/L ([4]; Stenotrophomonas maltophilia 1AC736, with 323 and sulbactam): 4 mg/L
MIC of antibiotic at fixed inhibitor concentration of 4 mg/L ([4]; Stenotrophomonas maltophilia 1AC736, with 324 and sulbactam): 4 mg/L
Compound: C[C@H]1[C@H](NC(=O)/C(=N\OCc2cc(=O)c(O)cn2O)c2nccc(N)n2)C(=O)N1S(=O)(=O)O [Compound 21, (3S,4S)-3-{(2Z)-2-(4-aminopyrimidin-2-yl)-3-[(1,5-dihydroxy-4-oxo(2-hydropyridyl))methoxy]-3-azaprop-2-enoylamino}-4-methyl-2-oxoazetidinesulfonic acid]

MIC of antibiotic at fixed inhibitor concentration (4 mg/L) (Acinetobacter sp. J2): >32 mg/L
MIC of antibiotic at fixed inhibitor concentration (4 mg/L) [1]: 32 mg/L
MIC of antibiotic at fixed inhibitor concentration (4 mg/L) [2]: 4 mg/L
MIC of antibiotic at fixed inhibitor concentration (4 mg/L) (Enterobacter cloacae P99): 32 mg/L
MIC of antibiotic at fixed inhibitor concentration (4 mg/L) [3]: 0.125 mg/L
MIC of antibiotic at fixed inhibitor concentration (4 mg/L) (Serratia marcescens S6): 0.25 mg/L
MIC of antibiotic at fixed inhibitor concentration (4 mg/L) [4]: 0.125 mg/L
Compound: NC(=S)c1cc[n+](CC(=O)N2CC[C@@H]3[C@H]2C(=O)N3S(=O)(=O)[O-])cc1 [Compound 118, (1S,5R)-2-{2-[4-(aminothioxomethyl)pyridinium]acetyl}-7-oxo-2,6-diazabicyclo[3.2.0]heptane-6-sulfonate, inner salt]

MIC of antibiotic at fixed inhibitor concentration (4 mg/L) (Acinetobacter sp. J2): >32 mg/L
MIC of antibiotic at fixed inhibitor concentration (4 mg/L) [1]: 16 mg/L
MIC of antibiotic at fixed inhibitor concentration (4 mg/L) [2]: 4 mg/L
MIC of antibiotic at fixed inhibitor concentration (4 mg/L) (Enterobacter cloacae P99): 32 mg/L
MIC of antibiotic at fixed inhibitor concentration (4 mg/L) [3]: 0.125 mg/L
MIC of antibiotic at fixed inhibitor concentration (4 mg/L) (Serratia marcescens S6): 0.25 mg/L
MIC of antibiotic at fixed inhibitor concentration (4 mg/L) [4]: 0.125 mg/L
Compound: COC(=O)c1ccc[n+](CC(=O)N2CC[C@@H]3[C@H]2C(=O)N3S(=O)(=O)[O-])c1C [Compound 115, (1S,5R)-2-{2-[3-(methoxycarbonyl)-2-methylpyridinium]acetyl}-7-oxo-2,6-diazabicyclo[3.2.0]heptane-6-sulfonate, inner salt]
